{"source": "patent US12545745B2", "about": "“Method for treating a degenerative neurological disorders comprising administering ASM inhibitor” (KYUNGPOOK NATIONAL UNIVERSITY INDUSTRY-ACADEMIC COOPERATION …, priority 2013, dated 2026)", "molecules": {"B1": {"name": "recombinant ASM: recombinant acid sphingomyelinase protein used to treat human fibroblast (protein)", "chain": "LALSDSRVLWAPAEAHPLSPQGHPARLHRIVPRLRDVFGWGNLTCPICKGLFTAINLGLKKEPNVARVGSVAIKLCNLLKIAPPAVCQSIVHLFEDDMVEVWRRSVLSPSEACGLLLGSTCGHWDIFSSWNISLPTVPKPPPKPPSPPAPGAPVSRILFLTDLHWDHDYLEGTDPDCADPLCCRRGSGLPPASRPGAGYWGEYSKCDLPLRTLESLLSGLGPAGPFDMVYWTGDIPAHDVWHQTRQDQLRALTTVTALVRKFLGPVPVYPAVGNHESTPVNSFPPPFIEGNHSSRWLYEAMAKAWEPWLPAEALRTLRIGGFYALSPYPGLRLISLNMNFCSRENFWLLINSTDPAGQLQWLVGELQAAEDRGDKVHIIGHIPPGHCLKSWSWNYYRIVARYENTLAAQFFGHTHVDEFEVFYDEETLSRPLAVAFLAPSATTYIGLNPGYRVYQIDGNYSGSSHVVLDHETYILNLTQANIPGAIPHWQLLYRARETYGLPNTLPTAWHNLVYRMRGDMQLFQTFWFLYHKGHPPSEPCGTPCRLATLCAQLSARADSPALCRHLMPDGSLPEAQSLWPRPLFC"}}, "key": {"[1]": {"system": "β-amyloid", "test": "β-amyloid deposition in brain tissue of APP/PS1 mice (thioflavin S, immunofluorescence, ELISA)", "format": "in vivo, mouse", "details": "cerebral cortex and hippocampus, AMI for four months, FIG. 25", "description": "First, the cerebral cortex and hippocampus tissue of each mouse prepared in Example 1-1 were isolated, and then a tissue fragment was obtained and this was dyed with thioflavin S according to a conventional known method. The results are illustrated in FIG. 3 (cerebral cortex) and FIG. 4 (hippocampus).\nAlso, immunofluorescence was performed according to a conventional known method using anti-20G10 (mouse, 1:1000) antibody against Aβ42, anti-G30 (rabbit, […]) antibody against Aβ40, anti-Iba-1 (rabbit, 1:500, Wako) antibody, anti-GFAP (rabbit, 1:500, DAKO) antibody and anti-active caspase3 (rabbit, 1:50, Chemicon) antibody. Tissue fragments were observed using a confocal laser scanning microscope equipped with Fluoview SV1000 imaging software (Olympus FV1000, Japan) or an Olympus BX51 microscope, and the percentage of the area of the dyed area with respect to the area of the entire tissue was quantified using Metamorph software (Molecular Devices).\nAlso, β-amyloid deposition was confirmed using commercially available ELISA kits (Biosource). More specifically, hemispheres of the brain of each mouse were homogenized in a buffer containing 0.02 M of guanidine. Thereafter, ELISA was performed for Aβ40 and Aβ42 according to the manufacturer's instructions.\nAfter fixing the cerebral and hippocampal tissues of the mice, 0.5% thioflavin S (Sigma-Aldrich), anti-20G10 antibodies (mouse, 1:1000) against Aβ42, anti-G30 antibodies (rabbit, […]) against Aβ40, anti-GFAP antibodies (rabbit, 1:500, DAKO), or anti-Iba-1 antibodies (rabbit, 1:500, Wako) were co-cultured. The tissues were analyzed using a laser scanning confocal microscope equipped with Fluoview SV1000 imaging software (Olympus FV1000, Japan) or an Olympus BX51 microscope. Percentage of stained area to total tissue area was quantified and analyzed using Metamorph software (Molecular Devices).\nAfter fixing the mouse brain and hippocampus, 0.5% thioflavin S (Sigma-Aldrich), anti-GFAP (rabbit, 1:500, DAKO), and anti-Iba-1 (rabbit, 1:500, WAKO) were co-cultured together. The regions were analyzed using a laser scanning confocal microscope equipped with Fluoview SV1000 imaging software (Olympus FV1000, Japan) or an Olympus BX51 microscope. Percentage of stained area to total tissue area was quantified and analyzed using Metamorph software (Molecular Devices).\nProteins were extracted from mouse brain and hippocampus, and the amounts of Abeta40 (KHB3481, Invitrogen) and Abeta42 (KHB3441, Invitrogen) were measured using ELISA."}, "[2]": {"system": "APP/PS1 mice", "test": "Morris water maze (MWM) test in APP/PS1 mice", "format": "in vivo, mouse", "details": "AMI for four months, vs control group, FIG. 26", "description": "More specifically, wild type mice, APP/PS1/ASM^+/− mice, ASM^+/− mice and APP/PS1 mice were used. The mice were given four trials per day for 10 days to learn the task, and on day 11, the mice were given a probe trial in which the platform was removed. The escape latency during the test period and the time spent in the target platform on day 11 were measured. The results are illustrated in FIG. 7 and FIG. 8.\n(§1) MWM (Morris water maze) experiments were performed in a conventional manner to identify potential effects on learning and memory. Briefly, for the MWM test, mouse were learned the task four times a day for 10 days, followed by the removal of the platform on the 11th day and subsequently a probe trial performed.\nas §1, with “mice” for “mouse”"}, "[3]": {"target": "T1, ASM (Mus musculus, UniProt Q04519)", "T1 construct": "from tissue; host or cells: mouse serum/plasma and brain tissue (APP/PS1, RSD-stressed C57BL/6, FUS R521C mice)", "T1 sequence (Q04519 45-627)": "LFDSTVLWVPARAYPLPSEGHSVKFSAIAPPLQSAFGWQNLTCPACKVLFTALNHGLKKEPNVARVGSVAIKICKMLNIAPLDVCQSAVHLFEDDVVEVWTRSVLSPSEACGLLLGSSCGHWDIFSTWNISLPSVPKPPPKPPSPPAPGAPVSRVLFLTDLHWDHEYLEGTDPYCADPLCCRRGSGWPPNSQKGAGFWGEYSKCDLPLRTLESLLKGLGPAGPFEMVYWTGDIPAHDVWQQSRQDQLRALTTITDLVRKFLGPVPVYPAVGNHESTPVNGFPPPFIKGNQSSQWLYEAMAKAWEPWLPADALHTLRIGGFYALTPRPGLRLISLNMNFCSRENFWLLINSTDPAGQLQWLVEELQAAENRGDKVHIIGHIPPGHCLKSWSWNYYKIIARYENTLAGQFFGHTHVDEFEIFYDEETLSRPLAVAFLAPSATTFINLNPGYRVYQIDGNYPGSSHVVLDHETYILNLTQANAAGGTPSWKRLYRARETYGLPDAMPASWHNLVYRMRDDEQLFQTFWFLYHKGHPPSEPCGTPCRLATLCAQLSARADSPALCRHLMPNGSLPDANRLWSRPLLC", "test": "ASM activity / concentration level in serum (plasma) and brain tissue of APP/PS1 mice (UPLC)", "format": "in vivo", "details": "APP/PS1 mice, AMI administered for four months, nine month old; FIG. 24", "method": "More specifically, 3 μl of plasma, brain tissue and fibroblast samples from each mouse were mixed with an ASM activity buffer, and stored at 37° C. The hydrolysis reaction was completed by adding 114 μl of ethanol to the mixed solution, and then the mixed solution was centrifuged. 30 μl of the supernatant was transferred into a glass vial, and then 5 μl was applied to the UPLC system. The ASM concentration level was quantified in comparison with a bodipy (aminoacetaldehyde) combined with sphingomyelin and ceramide. The sphingomyelin and ceramide levels were extracted and quantified according to a known method, by extracting lipid from the sample, resuspending the dried lipid extract in 25 μl of 0.2% Igepal CA-630 (Sigma-Aldrich), and quantifying the concentration level of each lipid using the UPLC system. […] The animal test conducted was approved by the Kyungpook National University Institutional Animal Care and Use Committee (IACUC). Transgenic mouse line overexpressing APPswe (hAPP695swe) and PS1 (presenilin-1M146V) based on C57BL/6 mice (Charles River, UK) were used as Alzheimer's animal models [hereinafter, APP mice: mice overexpressing APPswe, PS1 mice: overexpressing presenilin-1M146V; GlaxoSmithKline]. […] The concentration level of ASM was measured as follows. Specifically, 3μ ? of mouse serum, brain tissue and fibroblast samples were mixed with ASM activity buffer and stored at 37° C. 114 μ ? of ethanol was added to terminate the hydrolysis reaction, followed by centrifugation. […] The ASM concentration levels were quantified by comparison with sphingomyelin and Bodipy (aminoacetaldehyde) conjugated with ceramide. The extraction and quantification of the sphingomyelin and ceramide was carried out by extracting and drying the lipids from the sample according to a known conventional method, and resuspending the dried lipid extract to 25 μl of 0.2% Igepal CA-630 (Sigma-Aldrich), and the concentration levels of each lipid were quantitated using the UPLC system. […] The concentration level of ASM was measured as follows. […]"}, "[4]": {"system": "human fibroblast", "test": "Autophagy (LC3-I to LC3-II conversion) in human fibroblast treated with recombinant ASM, M6P or NH4Cl", "format": "cell-based", "description": "Human fibroblast acquired from the Coriell Institute, and was cultured in DMEM medium containing 15% FBS at 37° C. and 5% of CO2. The cell lines were treated with recombinant ASM (1 μM to 10 μM), and then Western blotting and densitometric quantification were performed in the same manner as Example 2-1. The results are illustrated in FIG. 17 and FIG. 18.\nIn order to confirm how ASM affects autophagy, a test was conducted as follows. Human fibroblast was treated with ASM alone, or treated with ASM in the presence of mannose-6-phosphate (M6P; 10 mM) relating to the action of placing lysosomal enzyme protein in lysosome, and then the accumulation of autophagosome was confirmed using Western blotting and densitometric quantification. The results are illustrated in FIG. 19.\nIn order to confirm whether ASM increases the formation rate of autophagosome, or decreases the degradation rate of autophagosome, autophagic flux assay was performed. […] The results are illustrated in FIG. 20.\nAlso, when treating with NH4Cl or ASM after culturing fibroblast of human with Alzheimer's disease in a serum-free medium or complete medium, the conversion rate from LC3-I to LC3-II was measured using Western blotting. The results are illustrated in FIG. 21 and FIG. 22."}, "[5]": {"details": "human fibroblast treated with ASM in the presence of M6P 10 mM, FIG. 19"}, "[6]": {"details": "human fibroblast, recombinant ASM 1 μM to 10 μM, FIG. 17, 18"}}, "note": "Counter-ions that a name gives are not always drawn.", "data": [{"molecule": "CN(C)CCC=C1c2ccccc2CCc2ccccc21", "note": "[AMI, amitriptyline-hydrochloride, reference compound]", "values": [{"measurement": "deposition of β-amyloid", "setting": "[1]", "result": "inhibited"}, {"measurement": "ability to remember (escape latency, MWM)", "setting": "[2]", "result": "recovered by decrease in escape latency"}, {"measurement": "ASM in brain tissue", "setting": "[3]", "result": "decreased"}, {"measurement": "ASM in serum", "setting": "[3]", "result": "decreased"}]}, {"molecule": "O=C[C@@H](O)[C@@H](O)[C@H](O)[C@H](O)COP(=O)(O)O", "note": "[M6P, mannose-6-phosphate, reference compound]", "values": [{"measurement": "accumulation of ASM-induced autophagosome", "setting": "[4]; [5]", "result": "decreased"}, {"measurement": "conversion to LC3-II", "setting": "[4]; [5]", "result": "decreased"}]}, {"molecule": "Cl.N", "note": "[NH4Cl, reference compound]", "values": [{"measurement": "LC3-II level", "setting": "[4]; fibroblast of human with Alzheimer's disease, serum-free medium (autophagy induced), NH4Cl added, FIG. 21", "result": "increased significantly"}]}, {"molecule": "B1", "values": [{"measurement": "amount of LC3-II (autophagic flux assay)", "setting": "[4]; cells treated with ASM and NH4Cl, FIG. 20", "result": "no significant change"}, {"measurement": "accumulation of LC3-II", "setting": "[4]; fibroblast of human with Alzheimer's disease, serum-free medium (autophagy induced), treated with ASM, FIG. 22", "result": "increased significantly"}, {"measurement": "conversion from LC3-I to LC3-II", "setting": "[4]; [6]", "result": "takes place depending on the concentration"}, {"measurement": "expression of beclin-1", "setting": "[4]; [6]", "result": "no significant change"}]}]}
